The test system of the assay is CEM cells HIV-1 protection, formazan growth assay. In words: NCI AIDS Antiviral Assay. To be noted: for IC50: measured here: growth of uninfected CEM cells. In outline: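 Five concentrations of each compound were applied to infected and uninfected human CEM cells. Protection from HIV-1 was judged from growth measured with a soluble formazan assay.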

This passage reports EC50, IC50 and outcome results from PubChem BioAssay AID179 (DTP/NCI, 2004).

Where “and” joins values, the source holds several entries; their conditions need not be identical. Equal entries are not always repeated. Calls of active or inactive are those of the source.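 How the source made its calls: active means compounds giving half or more protection of infected cells from virus-caused growth loss, again on retest; inactive means the rest.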

By EC50 is commonly meant the concentration at which the effect is half-maximal. A word on the IC50: it is the concentration that gives 50% inhibition. Higher therefore signals weaker potency in that assay.

`COc1ccc(=O)n(C)n1`: the EC50 was over 1780 µM and the IC50 worked out at 1450 µM.

For `CCCCCCCCCCCC1=C(O)C(=O)C(CC2=C(O)C(=O)C(CCCCCCCCCCC)=C(O)C2=O)=C(O)C1=O`, the EC50 is over 20 µM and the IC50 was over 20 µM.

Take `CCN(CC)C(=O)Cn1c(C)cc2ccccc21`: the EC50 is over 200 µM and the IC50 was over 200 µM.

For `CCO/N=C(/N)c1ncn(Cc2ccccc2)c1NCC(OCC)OCC`, the EC50 was over 661 µM and the IC50 was 339 µM.

As for `CN(C)c1ccc(C(Cc2ccccc2)C2NC(=S)NC2=O)cc1` (configuration not stated), the EC50 is over 200 µM and the IC50 worked out at 15.5 µM.

For `Cn1c2ccccc2c(=O)c2c(O)cc3c(c21)C=CC1(CCCC1)O3`, the EC50 is 16.2 µM and the IC50 is over 200 µM.

As for `COC(=O)C(CCCC1(c2ccccc2)OCCO1)C(C)=O` (configuration not stated), the EC50 is over 200 µM and the IC50 is over 200 µM.

Consider `O=C1CC(c2ccccc2)NCN1` (configuration not stated), for which the result was inactive.

For the compound `CSc1n[nH]c(=O)c2nc[nH]c12`, the EC50 is over 245 µM and the 50% inhibitory concentration (IC50) was over 245 µM.

In the case of `S=C(N/N=C(/c1ccccc1)c1ccccn1)N1CCCCC1`, the EC50 was over 2 µM and the IC50 was 0.0389 µM.

For the compound `NC1=NCC(c2ccc(Cl)cc2)O1` (configuration not stated), the EC50 was over 200 µM and the 50% inhibitory concentration (IC50) turned out to be 50.1 µM.

Turning to `CCOC(=N)CNC(=O)c1ccccc1`, the EC50 was over 200 µM and the IC50 was over 200 µM.

Regarding `O=C(c1ccc(Br)cc1)n1c2ccc(Br)cc2c2nc3ccccc3nc21`, the EC50 is over 50.1 µM and the 50% inhibitory concentration (IC50) was over 50.1 µM.

Regarding `COc1cc(C2CC(=O)c3ccccc3O2)ccc1O` (configuration not stated), the EC50 was over 200 µM and the IC50 amounted to 11.7 µM.

Turning to `CCOC(=O)[C@H](C)OC(=O)[C@@](C)(NC(=O)c1ccccc1C(=O)OC)[C@@H]1NC=C(C(=O)OC)CS1`, the EC50 was over 200 µM and the IC50 came out at 53.7 µM.

Take `c1ccc(-c2nc3ccccc3nc2-c2ccccn2)nc1`: the EC50 is over 200 µM and the concentration for half-maximal inhibition (IC50) is over 200 µM.

Take `Oc1c(C(Nc2cccc3cccnc23)c2ccccc2)ccc2cccnc12` (configuration not stated): the EC50 is over 3.8 µM and the IC50 is 0.933 µM.

`O=[N+]([O-])c1ccc2c3c(cccc13)S(=O)(=O)O2`: the EC50 is over 200 µM and the IC50 turned out to be 85.1 µM.

Consider `Cc1n[nH]c2ccc([N+](=O)[O-])cc2c1=O`, for which the EC50 is over 57.5 µM and the half-inhibitory concentration (IC50) was over 57.5 µM.

As for `O=C(NCCCl)c1cc(C(F)(F)F)cc(C(F)(F)F)c1`, the result was inactive.

On to `Cc1cc(Br)ccc1Nc1nc(N)nc(N)c1N=O`, for which the EC50 is over 200 µM and the IC50 came out at 51.3 µM.

`CCOC(=O)C1C(c2ccccc2)C2(C#N)C(=N)OC1(C)C2(C#N)C#N` (configuration not stated): the EC50 is over 200 µM and the IC50 was 28.8 µM.

For the compound `COc1cc2c3c(c1OC)-c1[nH]c4ccccc4c1C1CCCN(CC2)C31` (configuration not stated), the EC50 was over 138 µM and the IC50 was 15.1 µM.

Regarding `CC(=O)Oc1ccccc1C(=O)/C=C/c1ccccc1`, the EC50 was over 132 µM and the IC50 was determined as 12 µM.

Take `CCOC(=O)c1c(-c2ccc(OC)c(O)c2)c(C#N)c(=S)n(C2OC(COC(C)=O)C(OC(C)=O)C(OC(C)=O)C2OC(C)=O)c1-c1ccccc1` (configuration not stated): the EC50 is over 200 µM; the IC50 was 102 µM and 56.2 µM.

`FC(F)(F)c1cccc(C2SCc3nc4ccccc4n32)c1` (configuration not stated): the result was inactive.

Turning to `CCOC(=O)C1=C(O)CC(=O)N=C1N1CCCC1`, the EC50 was over 200 µM and the 50% inhibitory concentration (IC50) was over 200 µM.

Take `CCN(CC)C1Oc2cc3c(cc2C(c2cc(OC)c(O)c(OC)c2)C1C)OCO3` (configuration not stated): the EC50 was over 200 µM and the IC50 was determined as 1.29 µM.

As for `O=C1OC(c2ccc(Cl)c3ccccc23)c2ccccc21` (configuration not stated), the EC50 is over 17.8 µM and the IC50 was over 17.8 µM.

As for `Cc1nc(=O)n2c(c1C(=O)Nc1ccc(Cl)cc1)NCC2`, the outcome was inactive.

As to `Cc1c2c(C#N)nccc2c(C)c2c1c1ccccc1n2Cc1ccccc1`, the result was inactive.

Consider `CCN(/N=C1\CC2C=CCN(C2)C(=O)Cc2c1[nH]c1ccccc21)S(=O)(=O)c1ccc(C)cc1` (configuration not stated), for which the EC50 was over 63.1 µM and the IC50 worked out at 60.3 µM.

For `COc1ccc2c(c1)C(O)NC(=O)O2` (configuration not stated), the EC50 was over 200 µM and the 50% inhibitory concentration (IC50) is 49 µM.

Consider `N#CC(c1nc2ccccc2nc1Cl)S(=O)(=O)c1ccccc1` (configuration not stated), for which the EC50 was over 105 µM and the IC50 was found to be 6.76 µM.

Regarding `C=C1C(=O)OC2/C=C(\C)C3OC3/C=C(/C(=O)OC)C(OC(C)=O)C(OC(=O)C(C)(O)C(C)OC(C)=O)C12` (configuration not stated), the EC50 was over 129 µM and the IC50 came out at 0.832 µM.

In the case of `CC1=CN(c2ccccc2)S2=C1c1sc3c(c1N2c1ccc(Br)cc1)CCCC3` (configuration not stated), the EC50 is over 200 µM and the IC50 is over 200 µM.

Regarding `OCCNc1nc(Cl)nc(Cl)n1`, the EC50 was over 200 µM and the IC50 is over 200 µM.

`N#CCCN(CCC#N)c1ccc(C(Sc2ccccc2)C(NC(=O)c2cc([N+](=O)[O-])ccc2Cl)C(=O)Sc2ccccc2)cc1` (configuration not stated): the EC50 was over 10.7 µM and the IC50 stood at 3.55 µM.

For the compound `Cc1ccc2c(c1)S(=O)(=O)NC2=O`, the EC50 is over 1260 µM and the IC50 stood at 1230 µM.

For `CCC(=O)NI1OC(=O)c2ccccc21`, the EC50 was over 200 µM and the IC50 came out at 81.3 µM.

`O=S1(=O)c2ccccc2N2CCCc3cc(Cl)cc1c32`: the EC50 was over 200 µM and the IC50 is over 200 µM.

As to `O=S(=O)(O)c1cc(N=Nc2cc(S(=O)(=O)O)c3cccnc3c2O)ccc1/C=C/c1ccc(N=Nc2cc(S(=O)(=O)O)c3cccnc3c2O)cc1S(=O)(=O)O.[Na+].[Zn+2]`, the EC50 was 1.95 µM and the IC50 amounted to 14.1 µM.

As for `Cc1ccc(-c2nc3ccccc3c(=O)n2NC2OC(CO)C(O)C(O)C2O)cc1` (configuration not stated), the result was inactive.

On to `CCC[CH2][Sn]([CH2]CCC)([O]C(=O)CN)[O]C(=O)CN`, for which the EC50 is over 33.9 µM and the IC50 stood at 2.45 µM.

Regarding `OCCCCCCCCCCCOc1ccc(C2OCC3(CC=CCC3)CO2)cc1` (configuration not stated), the EC50 is over 200 µM and the IC50 was 36.3 µM.

Consider `CN1CN(c2ccccc2)C2(CCNCC2)C1=O`, for which the EC50 was over 200 µM and the IC50 was over 200 µM.

With `COc1cc(SSc2cc(OC)c(OC)cc2C(=O)N2CSC[C@H]2C(=O)O)c(C(=O)N2CSC[C@@H]2C(=O)O)cc1OC`, the EC50 is over 200 µM and the IC50 is over 200 µM.

`COc1cc(-c2ccc(N=Nc3ccc4c(S(=O)(=O)O)cc(S(=O)(=O)O)c(N)c4c3O)c(OC)c2)ccc1N=Nc1ccc2c(S(=O)(=O)O)cc(S(=O)(=O)O)c(N)c2c1O`: the EC50 is 5.01 µM, the result was active and the IC50 was determined as 49 µM.

On to `CCOC(=O)c1nc2cc(C(F)(F)F)ccc2nc1Nc1ccc(OC)c(OC)c1`, for which the outcome was inactive.

With `O=C(N=C1OC2C(OC(=O)c3ccccc3)C(COC(=O)c3ccccc3)OC2N1C(=O)c1ccccc1)c1ccccc1` (configuration not stated), the EC50 was over 200 µM and the IC50 was found to be 107 µM.

In the case of `C#CC1(O)CCC2C3CCc4cc(Oc5nc(F)nc(-c6c7ccccc7c7n6CCS7)n5)ccc4C3CC[C@@]21C` (some centres not stated), the EC50 was over 200 µM and the IC50 came to 11.2 µM.

For `COC(=O)c1c(C)cc(OC(=O)c2c(C)cc(O)c(/C=N\Nc3ccccc3)c2O)c(C)c1O`, the EC50 was over 200 µM and the IC50 is 9.77 µM.

`O=C1CCCCC/C1=C\c1cccc(Cl)c1`: the EC50 is over 200 µM and the IC50 worked out at 28.8 µM.

Turning to `O=C(NCCCNC(=O)c1ccc2cc(O)ccc2c1)c1ccc2cc(O)ccc2c1`, the result was inactive.

Regarding `CC(=O)OCCOCn1c2ccccc2c2c3c(c4c5ccccc5n(COCCOC(C)=O)c4c21)C(=O)N(Cc1ccccc1)C3=O`, the result was inactive.

Consider `CCSc1nn(-c2c3ccccc3nc3ccccc23)c(=S)s1`, for which the EC50 was over 200 µM and the IC50 is 102 µM.

As for `COc1ccc(/C=C2\C(=O)N(C(=O)c3ccc(NC(C)=O)cc3)N=C2C)cc1`, the EC50 is over 19.1 µM and the IC50 is over 19.1 µM.

`O=[N+]([O-])c1cc(-c2ccc([As](=O)(O)O)cc2)ccc1[As](=O)(O)O` displayed an EC50 of over 200 µM and an IC50 of over 200 µM.

Consider `Cc1ccc(C)c(NC(=O)C(=O)CC(=O)C2CCOC2=O)c1` (configuration not stated), for which the result was inactive.

With `CC1=NN(C(=O)c2ccc([N+](=O)[O-])cc2)C(=O)C1N=Nc1ccccc1C(=O)O` (configuration not stated), the result was inactive.

Consider `COc1ccc(CNc2nc3ccc(C(F)(F)F)cc3nc2-c2ccccc2)cc1OC`, for which the EC50 is over 12 µM and the IC50 was over 12 µM.

As to `CC1(C)OC2OC(C(COS(=O)(=O)C(F)(F)F)N=[N+]=[N-])C(OC(=O)c3ccccc3)C2O1` (configuration not stated), the EC50 was over 200 µM and the IC50 was over 200 µM.

`CN(/N=C/C=N/N(C)C1=NCCN1)C1=NCCN1`: the EC50 is over 200 µM and the IC50 was over 200 µM.

For the compound `CCOP(=O)(Cc1nc(C#N)c(N)o1)OCC`, the EC50 is over 200 µM and the IC50 is over 200 µM.

In the case of `COc1ccc(CNc2cnc3ccc(N)cc3n2)cc1OC`, the EC50 is over 115 µM and the 50% inhibitory concentration (IC50) was over 115 µM.

`CCCOC1=NC2=NC(OCCC)=NC3=C(Br)C=C(Br)C(=N1)N23`: the EC50 is over 42.7 µM and the IC50 was over 42.7 µM.

With `C[N+](C)(CCOc1ccccc1)Cc1cccs1`, the EC50 is over 200 µM and the 50% inhibitory concentration (IC50) is over 200 µM.

With `CCOC(=O)/C(=C\c1ccc(C(F)(F)F)cc1)[Se]c1ccccc1`, the EC50 was over 18.2 µM and the IC50 was over 18.2 µM.

Regarding `O=C1CC(C(O)(C(F)(F)F)C(F)(F)Cl)CCC1C(O)(C(F)(F)F)C(F)(F)Cl` (configuration not stated), the outcome was inactive.

For the compound `COc1ccc(/C(Cl)=C(\C=O)c2ccccc2)cc1OC`, the outcome was inactive.

As for `C=C[C@@]1(O)CCCC[C@@H]1CC(Sc1ccccc1)Sc1ccccc1`, the EC50 was over 200 µM and the IC50 is 19.5 µM.

In the case of `O=c1nc(SSc2ccn(C3OC(CO)C(O)C3O)c(=O)n2)ccn1C1OC(CO)C(O)C1O` (configuration not stated), the EC50 is over 200 µM and the IC50 is 2.63 µM.
